Measured values: patent US10072023B2, “Diarylethene compounds and uses thereof” (SWITCH MATERIALS, INC., priority 2011, dated 2018)

Assays:
[1] = Solubility in indicated solvent; assay type: physicochemical; settings: % wt soluble in triglyme
Description: A compound with greater solubility allows for a formulation or material with a greater concentration of coloured molecule to be incorporated into a composition. This may allow for increasing the contrast ratio for a compound with a lesser absorbance at PSS. Inclusion of a solubilizing group in a compound according to various embodiments of the invention may increase solubility. Examples of solubilizing groups may include alkoxy or siloxy groups.

[2] = Absorbance at photostationary state (PSS) under simulated sunlight or 365 nm light; assay type: physicochemical; parameters: λ max: unit not given here; settings: for Absorbance at PSS, 365 nm: 365 nm light source; for Absorbance at PSS, 365 nm / Absorbance at PSS, full / Absorbance at PSS, +UV / λ max: 2.0×10^−5 M in triglyme; for sensitivity index: ratio of PSS under 365 nm light to PSS under full spectrum light (without UV blocking film); for Absorbance at PSS, full: simulated sunlight (QSUN solar simulator), no UV blocking film; for Absorbance at PSS, +UV: simulated sunlight with UV blocking film (cutoff 370 nm); for λ max: wavelength of maximum absorbance in the visible range, ring-closed isoform
Protocol: Absorbance at a PSS for selected compounds was measured at 2.0×10^−5 M in triglyme in the absence (full) or presence (+UV) of a UV blocking film with a UV cutoff wavelength of 370 nm (10% transmission at 370 nm), using simulated sunlight (QSUN solar simulator) as a light source, or a 365 nm light source; these PSS are reported in Tables 1.5. […] “Switch” refers to the ability (yes or no) of the compound to be reversibly converted under photochromic and electrochromic conditions between a ring-open isomer and ring-closed isomer.
A sensitivity index (SI) is a ratio of the PSS under 365 nm light to the PSS under full spectrum light (without UV blocking film). SI is an indicator of the sensitivity of the compound to the composition of the incident light (a change in the ratio of UV and visible components)—photochemical ring-opening is induced by a portion of the visible light spectrum.
Photostationary State (PSS) UV/Vis spectra are obtained using an OceanOptics™ Spectrophotometer until absorption in the visible region of the spectrum stabilizes. A 2×10^−5M solution of compound in solvent is prepared, and photofaded using visible light until absorption in the visible region of the spectrum stabilizes. The sample is then irradiated with simulated sunlight (QSUN SS-150 Solar Simulator with xenon arc lamp) until the absorption spectrum stabilizes. To obtain PSS in the presence of a UV blocking film, a second sample is prepared and irradiated as described, with a UV blocking film inserted in the light path when irradiating.

Row | SMILES | Solubility [1] | Absorbance at PSS, 365 nm [2] | sensitivity index [2] | Absorbance at PSS, full [2] | Absorbance at PSS, +UV [2] | λ max [2]
1 | CC(C)(C)c1ccc(-c2cc(C3=C(c4cc(-c5ccc(C(C)(C)C)s5)sc4-c4ccc(C(C)(C)C)s4)C(F)(F)C(F)(F)C3(F)F)c(-c3ccc(C(C)(C)C)s3)s2)s1 [S003, 3′,3″″-(perfluorocyclopent-1-ene-1,2-diyl)bis(5,5″-di-tert-butyl-2,2′:5′,2″-terthiophene)] | <3 % wt | 0.372 | 1.40 | 0.2655 | 0.2055 | 650
2 | FC1(F)C(c2cc(-c3ccccc3)sc2-c2ccccc2)=C(c2cc(-c3ccc(Cl)cc3)sc2-c2ccccc2)C(F)(F)C1(F)F [S006, 5-(4-chlorophenyl)-3-(2-(2,5-diphenylthiophen-3-yl)-3,3,4,4,5,5-hexafluorocyclopent-1-en-1-yl)-2-phenylthiophene] | 3 % wt | 0.141 | 3.71 | 0.038 | 0.013 | 610
3 | Cc1cc(-c2cc(C3=C(c4cc(-c5cc(C)c(C)s5)sc4-c4cc(C)c(C)s4)C(F)(F)C(F)(F)C3(F)F)c(-c3cc(C)c(C)s3)s2)sc1C [S011] | 3 % wt | 0.363 | 1.81 | 0.201 | 0.142 | 655
4 | Cc1ccc(-c2oc3ccccc3c2C2=C(c3c(-c4ccc(C)s4)oc4ccccc34)C(F)(F)C(F)(F)C2(F)F)s1 [S137, 3,3′-(perfluorocyclopent-1-ene-1,2-diyl)bis(2-(5-methylthiophen-2-yl)benzofuran)] |  | 0.15 | 4.55 | 0.033 | 0.016 | 497
5 | CC(C)(C)c1ccc(-c2cc(C3=C(c4cc(-c5ccc(C(C)(C)C)s5)sc4-c4ccc(OCCCCC#N)cc4)C(F)(F)C(F)(F)C3(F)F)c(-c3ccc(OCCCCC#N)cc3)s2)s1 [S139, 5,5′-(((4,4″-(perfluorocyclopent-1-ene-1,2-diyl)bis(5′-(tert-butyl)-[2″,2″′-bithiophene]-5″,4-diyl))bis(4,1phenylene))bis(oxy))dipentanenitrile] |  | 0.403 |  | 0.322 | 0.216 | 
6 | COc1ccc(-c2oc3cc(OC)ccc3c2C2=C(c3c(-c4ccc(OC)cc4)oc4cc(OC)ccc34)C(F)(F)C(F)(F)C2(F)F)cc1 [S140, 3,3′-(perfluorocyclopent-1-ene-1,2-diyl)bis(6-methoxy-2-(4-methoxyphenyl)benzofuran)] |  | 0.276 | 4.25 | 0.065 | 0.032 | 516
7 | CC(C)(C)c1ccc(-c2cc(C3=C(c4cc(-c5ccc(C(C)(C)C)s5)sc4-c4ccc(OCCCCC(=O)O)cc4)C(F)(F)C(F)(F)C3(F)F)c(-c3ccc(OCCCCC(=O)O)cc3)s2)s1 [S141, 5,5′-(4,4′-(4,4′-(perfluorocyclopent-1-ene-1,2-diyl)bis(5′-tert-butyl-2,2′-bithiophene-5,4-diyl))bis(4,1-phenylene)bis(oxy))dipentanoic acid] |  | 0.377 |  | 0.282 | 0.183 | 
8 | COc1ccc2c(C3=C(c4c(-c5ccc(C)s5)oc5cc(OC)ccc45)C(F)(F)C(F)(F)C3(F)F)c(-c3ccc(C)s3)oc2c1 [S144, 3,3′-(perfluorocyclopent-1-ene-1,2-diyl)bis(6-methoxy-2-(5-methylthiophen-2-yl)benzofuran)] |  | 0.318 | 3.88 | 0.082 | 0.04 | 513
9 | Cc1cc(-c2sc(-c3sc(C)c(C)c3C)cc2C2=C(c3cc(-c4sc(C)c(C)c4C)sc3-c3cc(C)c(C)s3)C(F)(F)C(F)(F)C2(F)F)sc1C [S148, 4′,4″″-(perfluorocyclopent-1-ene-1,2-diyl)bis(3,4,4″,5,5″-pentamethyl-2,2′:5′,2″-terthiophene)] |  | 0.244 | 1.63 | 0.15 | 0.092 | 650
10 | Cc1csc(-c2cc(C3=C(c4cc(-c5cc(C)cs5)sc4-c4cc(C)cs4)C(F)(F)C(F)(F)C3(F)F)c(-c3cc(C)cs3)s2)c1 [S149, 3′,3″″-(perfluorocyclopent-1-ene-1,2-diyl)bis(4,4″-dimethyl-2,2′:5′,2″-terthiophene)] |  | 0.339 | 1.41 | 0.241 | 0.169 | 647
11 | COc1ccc2c(C3=C(c4c(-c5ccc(C(C)(C)C)cc5)oc5cc(OC)ccc45)C(F)(F)C(F)(F)C3(F)F)c(-c3ccc(C(C)(C)C)cc3)oc2c1 [S151, 3,3′-(perfluorocyclopent-1-ene-1,2-diyl)bis(2-(4-(tert-butyl)phenyl)-6-methoxybenzofuran)] |  | 0.403 | 3.80 | 0.106 | 0.056 | 514
12 | COc1ccc2c(C3=C(c4c(-c5ccc(-c6ccc(C(C)(C)C)s6)s5)oc5cc(OC)ccc45)C(F)(F)C(F)(F)C3(F)F)c(-c3ccc(-c4ccc(C(C)(C)C)s4)s3)oc2c1 [S152, 3,3′-(perfluorocyclopent-1-ene-1,2-diyl)bis(2-(5′-(tert-butyl)-[2,2′-bithiophen]-5-yl)-6-methoxybenzofuran)] |  | 0.263 | 3.81 | 0.069 | 0.06 | 522
13 | COc1ccc2c(C3=C(c4c(-c5ccc(OC)c(OC)c5)oc5cc(OC)ccc45)C(F)(F)C(F)(F)C3(F)F)c(-c3ccc(OC)c(OC)c3)oc2c1 [S155, 3,3′-(perfluorocyclopent-1-ene-1,2-diyl)bis(2-(3,4-dimethoxyphenyl)-6-methoxybenzofuran)] |  | 0.329 | 4.06 | 0.081 | 0.045 | 516
14 | CCOCCOCCOCCOc1ccc2c(C3=C(c4c(-c5ccc(C(C)(C)C)cc5)oc5cc(OCCOCCOCCOCC)ccc45)C(F)(F)C(F)(F)C3(F)F)c(-c3ccc(C(C)(C)C)cc3)oc2c1 [S161, 3,3′-(perfluorocyclopent-1-ene-1,2-diyl)bis(2-(4-(tert-butyl)phenyl)-6-(2-(2-(2-ethoxyethoxy)ethoxy)ethoxy)benzofuran)] |  | 0.455 | 3.73 | 0.122 | 0.06 | 511
15 | CC(C)(C)c1ccc(-c2oc3cc(O)ccc3c2C2=C(c3c(-c4ccc(C(C)(C)C)cc4)oc4cc(O)ccc34)C(F)(F)C(F)(F)C2(F)F)cc1 [S162, 3,3′-(perfluorocyclopent-1-ene-1,2-diyl)bis(2-(4-(tert-butyl)phenyl)benzofuran-6-ol)] |  | 0.398 | 3.34 | 0.119 | 0.06 | 520
16 | CC(C)(C)c1ccc(-c2oc3cc4c(cc3c2C2=C(c3c(-c5ccc(C(C)(C)C)cc5)oc5cc6c(cc35)OCO6)C(F)(F)C(F)(F)C2(F)F)OCO4)cc1 [S163, 7,7′-(perfluorocyclopent-1-ene-1,2-diyl)bis(6-(4-(tert-butyl)phenyl)-[1,3]dioxolo[4,5-f]benzofuran)] |  | 0.533 | 2.12 | 0.252 | 0.116 | 588
17 | COc1cc2oc(-c3ccc(C(C)(C)C)cc3)c(C3=C(c4c(-c5ccc(C(C)(C)C)cc5)oc5cc(OC)c(OC)cc45)C(F)(F)C(F)(F)C3(F)F)c2cc1OC [S164, 3,3′-(perfluorocyclopent-1-ene-1,2-diyl)bis(2-(4-(tert-butyl)phenyl)-5,6-dimethoxybenzofuran)] |  | 0.546 | 2.32 | 0.235 | 0.134 | 554
18 | CC(C)(C)c1ccc(-c2cc(C3=C(c4cc(-c5ccc(C(C)(C)C)s5)sc4-c4cccs4)C(F)(F)C(F)(F)C3(F)F)c(-c3cccs3)s2)s1 [S170, 4,4′-(perfluorocyclopent-1-ene-1,2-diyl)bis(5′-tert-butyl-5-(thiopheyl)-2,2′-bithiophene)] |  |  |  | 0.287 | 0.182 | 645
